Data as given in publication PMC4633953, “FR171456 is a specific inhibitor of mammalian NSDHL and yeast Erg26p” (Nature Communications, 2015).
“And” between values parts separate entries of the source, which are not always exact repeats. Equal entries are not always repeated. “Also recorded” adds a separate entry of the source.

Key:
[1] = tested on: HCV replicon subgenomic genotype 1b; assay: HCV replicon assay in Huh-7 cells (luciferase); details: Hepatitis C virus; Huh-7 cell-based assay, 48 h
Procedure: The inhibitor screening was performed in 1,536-well plate with 3,000 cells per well, using Huh-7 cells containing the HCV replicon subgenomic genotype 1b, maintained in DMEM, supplemented with (1 × ) L-glutamine (L-Glue), 1 × non-essential amino acids, 10% heat-inactivated fetal bovine serum (FBS), and 1 mg ml^–1 G418, and incubated with compounds for 48 h at 37 °C, 5% CO2. […] Following compound incubation, Resazurin solution (10 × : 1 μg μl^–1 Resazurin in DMSO) diluted to 1 × was then added to a volume of 0.5 μl to each well and incubated for further 3 h at 37 °C, 5% CO2 to monitor cell viability. Subsequently 15 μl, diluted 1:2 from stock of Steady- Glo (Promega) was added and the luminescence from the HCV replicon was monitored using the Envision (Envision US Lum, using 0.1 s per well measurement time).

HepG2 = assay: Mammalian cell proliferation, HepG2; type: cell-based
503 cancer cell lines = assay: Compound activity profile against 503 cancer cell lines (72 h, Cell TiterGlo); type: cell-based; details: sensitive = Amax <50% and IC50 <5 μM
Procedure: Supplementary figure 1. […] A plot […]
of normalized maximal inhibition (Y axis) versus the inflection point (X Axis) of a standard dose-response curve for increasing concentrations of FR171456 incubated with 503 mammalian cell lines in culture for 72h (each symbol), as determined by Cell TiterGlo (Promega)

[2] = tested on: sterol pathway intermediates in Huh-7 cells; details: 80 nM vs 0 nM FR171456, 48 h
Procedure: In an attempt to understand which sterol (and other) metabolites are altered by FR171456 a metabolite-profiling experiment was conducted using cells from the original replicon assay exposed to vehicle or four concentrations of FR171456 (Fig. 1c,f, Methods, supplementary Fig. 2). Peaks in the mass spectra with statistically significant differences in intensities between the high (80 nM) and low (0 nM) concentration samples were selected by P values <0.01 (Student's t-test, Bonferroni corrected) and ranked by fold changes. Metabolite identities were assigned to those peaks whose m/z ratio corresponds to the mass of known metabolites (Supplementary Table 1).
Samples of cell pellets containing 8 × 10^6 cells each were lysed and extracted with 300 μl cold methanol (−80 °C) in ultrasonic bath for 10 min and subsequently agitated for 5 min before centrifugation at 10,000 g for 5 min at 4 °C. The supernatants were removed and the remaining pellets were again extracted twice. The supernatants from three extractions were then combined and dried using a SpeedVac (Savant, Fisher Scientific Inc., USA) for 2 h without heating. The residues were resuspended in 200 μl of 80% MeOH and centrifuged to remove any non-dissolvable particles. Finally, 10 μl of the supernatant was then diluted by factor 100 in MeOH/H2O (1:1) for mass spectrometric analysis.
The diluted sample (100 μl) was infused directly into a LTQ-Orbitrap mass spectrometer (Thermo Fisher Scientific, USA) using a HTC PAL autosampler (CTC Analytics, Zwingen, Switzerland) at a flow rate of 18 μl min^–1. A make-up flow, consisting of 70% ethanol and 0.1% formic acid, was delivered through a T-piece at 15 μl min^–1. Electrospray ionization and selected monitoring scan were applied. The total mass range m/z 100–2,000 was segmented into […] scan events with a width of mass window m/z 50 each. Mass resolution at m/z 400 was 100,000.
Each sample was measured in triplicate in positive ionization mode in random order. For quality and instrument stability control, the samples were interspersed with test mix infusion and pooled samples. Blank spectra were also recorded and the observed mass peaks of solvent and impurities were then suppressed in subsequent analysis.
The measured raw spectra were imported with in-house software written in the Igor package (Wavemetrics Inc.) for alignment, peak detection, and integral normalization. The table of exact peak masses and intensities (Supplementary Data, file Supplementary Dataset 1) were exported into the statistical software R, version 2.15.1, for subsequent univariate statistics and pathway analysis. For peak identification, the KEGG database was searched for matches of the observed peaks with endogenous metabolite entries. Metabolite masses with adducts of H^+, Na^+, or K^+ were considered a hit and possible identity of a peak if the difference between its exact monoisotopic mass and the observed mass plus adducts was below 3 p.p.m.

Candida albicans NF2103 = assay: Antifungal MIC; type: cell-based
[3] = tested on: Aspergillus fumigatus NF4905; assay: Antifungal MIC; type: cell-based
Rhizopus oryzae NF4801 = assay: Antifungal MIC; type: cell-based; details: Rhizopus arrhizus
Candida glabrata NF2905 = assay: Antifungal MIC; type: cell-based; details: Nakaseomyces glabratus
[4] = tested on: Fusarium verticillioides NF4901; assay: Antifungal MIC; type: cell-based
Erg26p Arg307His = assay: In vitro microsomal Erg26p activity assay, mutant; type: biochemical, S. cerevisiae; details: microsome extracts
Text: (§1) Thus many of the FR171456 resistance mutations were mapped close to the NAD^+ or the substrate-binding site. The presence of three active conservative mutations Arg39Lys, […], and Arg315His in proximity to NAD^+ and substrate-binding site are consistent with FR171456 binding the substrate-binding pocket thus inhibiting the enzymatic activity. To address this more directly, we tested microsome extracts from the erg26Δ haploid yeast strains expressing the Erg26p wild type, Arg39Lys, Arg307His and Arg315His mutants in increasing doses of FR171456 to assess Erg26p mutant activity (Fig. 3b). Whilst Arg39Lys and Arg307His shift the I50 2-fold, Arg315His confers a 20-fold shift in I50. This highlights the importance of the interaction between Arg315 and the carboxyl group of the substrate/inhibitor as one of the most critical in the Erg26p active site (Fig. 3c).
(§2) Wild-type yeast (FL200) microsomes were prepared as follows.

Erg26p Arg315His = assay: In vitro microsomal Erg26p activity assay, mutant; type: biochemical, S. cerevisiae; details: microsome extracts
Text: as §1, §2

Erg26p Arg39Lys = assay: In vitro microsomal Erg26p activity assay, mutant; type: biochemical, S. cerevisiae; details: microsome extracts
Text: as §1, §2

serum cholesterol = details: cited from earlier work

With `C=C(CCC(C)C1CCC2C1(C)CC(O)C13CC14C(=O)CC(O)C(C)(C(=O)O)C4C(=O)CC23O)C(C)C` [FR171456, (1R,2aR,3R,5aR,5bS,7aR,8S,9S,11aS,12aR)-1,5b,9-trihydroxy-2a,8-dimethyl-3-((R)-6-methyl-5-methyleneheptan-2-yl)-7,11-dioxohexadecahydrocyclopenta[a]cyclopropa[e]-phenanthrene-8-carboxylic acid] the IC50 [1] was 6.3 nM, the concentration affecting proliferation (HepG2) was 80 µM and the “anti-proliferative activity across cell line panel” value (503 cancer cell lines) was “not anti-proliferative; also recorded: unaffected; also recorded: only five cell lines were sensitive”. For the same compound, the “Fold change, m/z 401.3418 (calcidiol, 7α-hydroxycholest-4-en-3-one)” value [2] was 0.680, the “Fold change, m/z 463.3183 (pfaffic acid)” value [2] was “infinite” and the “Fold change, m/z 465.3339 (4α-methylzymosterol-4-carboxylate)” value [2] was 822.2. The “Fold change, m/z 467.3496 (3β-hydroxy-4β-methyl-5α-cholest-7-ene-4α-carboxylate)” value [2] was 3675.4, the “Fold change, m/z 489.3314 (not identified)” value [2] was “infinite” and the “Fold change, m/z 1198.8982 (not identified)” value [2] was 9665.6. The MIC (Candida albicans NF2103) was 32 µg/mL and 72 µM, the MIC [3] was 16 µg/mL and 36 µM and the MIC (Rhizopus oryzae NF4801) was 8 µg/mL and 18 µM. The MIC (Candida glabrata NF2905) was 16 µg/mL and 36 µM, the MIC [4] was 32 µg/mL and 72 µM and the “shift in I50 versus wild type” value (Erg26p Arg307His) was 2 fold. For the same compound, the “shift in I50 versus wild type” value (Erg26p Arg315His) was 20 fold, the “shift in I50 versus wild type” value (Erg26p Arg39Lys) was 2 fold and the “dose giving significant reduction in serum cholesterol” value (serum cholesterol; rabbits treated for 3 weeks ref 14) was 1 µg/kg. For the same compound, the adverse effects (serum cholesterol; rabbits, 3 weeks, doses up to 1 mg kg^−1 ref 14) was “no adverse effects reported” and the side effects (serum cholesterol; rabbits, efficacious doses for 14 days ref 14) was “no reported side effects”.
